{
  "source": "patent US20210401880A1",
  "about": "“Pharmaceutical Composition For Preventing Or Treating Obesity, Containing CYCLO(HIS-PRO) As Active Ingredient” (Novmetapharma Co., Ltd., priority 2018, published 2021)",
  "type_in_all_cases": "in vivo, human",
  "key": {"[1]": {"system": "patients with type 2 diabetes mellitus", "assay": "Clinical trial: evaluation of safety", "conditions": "CHP administration groups (3, 9, 15 mg of CHP+23 mg of zinc once a day, 12 weeks) vs placebo", "method": "(§1) We conducted a clinical trial designed as randomized, placebo-controlled, double-blind, and two-way crossover on drug interaction in patients with type 2 diabetes mellitus. The clinical trial was conducted for 149 patients over a total of 16 weeks, in which the screening period was 2 weeks, the treatment period was 12 weeks, and the period of the evaluation of safety and follow-up was 2 weeks.\n(§2) In the screening stage, 64 subjects were selected from 149 participants, and the subjects who met the selection criteria were fasted for 2 hours before and after breakfast each day and subjected to a 2-week evaluation process of measuring and recording blood glucose levels. In the treatment stage, capsules containing placebo or CHP with different doses were randomly administered to 64 selected subjects once a day for 12 consecutive weeks.\nIn the above experiment, a capsule containing CHP with a different dose or a placebo corresponding thereto was used, and each subject received a two-week dose (18 capsules=14+4) at one visit and was instructed to take 1 capsule before bedtime every day. In this case, the anti-diabetic drugs and other prescribed drugs currently being used were continuously taken. […]"}, "leptin": {"system": "leptin", "assay": "Clinical trial: plasma leptin level (leptin resistance)", "method": "as §1, §2\n(§3) In the above experiment, a capsule containing CHP with a different dose or a placebo corresponding thereto was used, and each subject received a two-week dose (18 capsules=14+4) at one visit and was instructed to take 1 capsule before bedtime every day. In this case, the anti-diabetic drugs and other prescribed drugs currently being used were continuously taken. Each subject was assigned at the same rate as follows and administered with a placebo or a compound with a different dose, respectively. • Administration Group A: 3 mg of CHP+23 mg of zinc—16 subjects • Administration Group B: 9 mg of CHP+23 mg of zinc—16 subjects • Administration Group C: 15 mg of CHP+23 mg of zinc—16 subjects • Administration Group D: placebo (control)—16 subjects\n(§4) The present inventors confirmed the improvement of body mass index (BMI) and the improvement of leptin resistance, and the results are shown in Tables 3 and 4.\nLeptin is an appetite suppressing protein secreted from adipose cells, and is known as a hormone to act on the brain after being secreted from adipose tissue to suppress appetite and activate metabolism in the body, thereby reducing body weight. In the case of humans, the more obese people (the more adipose tissue), the higher the concentration of leptin in the blood. This indicates the resistance to leptin action."}, "[2]": {"assay": "Clinical trial: improvement of body mass index (BMI)", "method": "as §1, §2, §3, §4"}, "[3]": {"assay": "Clinical trial: change in body weight over 12 weeks", "method": "as §1, §2, §3\nThe present inventors observed the change in body weight of subjects through the 12-week experiment, and the results are shown in Table 2 and FIG. 2."}, "[4]": {"system": "glycated hemoglobin (HbA1c)", "assay": "Clinical trial: change in concentration of glycated hemoglobin (HbA1c) over 12 weeks", "method": "as §1, §2, §3\nThe present inventors observed the change in concentration of HbA1c during the 12-week dosing period. Since the blood glucose level measured at one time point can change due to various factors, the change in glycated hemoglobin (HbA1c) was checked for the purpose of determining the pattern of long-term glycemic control, and the results are shown in Table 1 and FIG. 1."}, "[5]": {"conditions": "Administration Group A: 3 mg of CHP+23 mg of zinc once a day"}, "[6]": {"conditions": "Administration Group A: 3 mg of CHP+23 mg of zinc once a day, Baseline (Week 0)"}, "[7]": {"conditions": "Administration Group A: 3 mg of CHP+23 mg of zinc once a day, Week 12"}, "[8]": {"conditions": "Administration Group B: 9 mg of CHP+23 mg of zinc once a day"}, "[9]": {"conditions": "Administration Group B: 9 mg of CHP+23 mg of zinc once a day, Baseline (Week 0)"}, "[10]": {"conditions": "Administration Group B: 9 mg of CHP+23 mg of zinc once a day, Week 12"}, "[11]": {"conditions": "Administration Group C: 15 mg of CHP+23 mg of zinc once a day"}, "[12]": {"conditions": "Administration Group C: 15 mg of CHP+23 mg of zinc once a day, Baseline (Week 0)"}, "[13]": {"conditions": "Administration Group C: 15 mg of CHP+23 mg of zinc once a day, Week 12"}, "[14]": {"conditions": "all patient groups receiving CHP (3, 9, 15 mg+23 mg of zinc), 12 weeks"}},
  "data": [
    {"smiles": "O=C1NC(Cc2c[nH]cn2)C(=O)N2CCCC12", "note": "(centres unmarked) [CHP, cyclo(his-pro)]", "values": [
      {"measurement": "side effects (evaluation of safety)", "setting": "[1]", "value": "mild and moderate side effects that are not related to the CHP were observed"},
      {"measurement": "Plasma leptin level, Change Value (From Week 0 to Week 12), Average", "setting": "leptin; [5]", "value": 0.59},
      {"measurement": "Plasma leptin level, Average", "setting": "leptin; [6]", "value": 10.93},
      {"measurement": "Plasma leptin level, Average", "setting": "leptin; [7]", "value": 9.66},
      {"measurement": "Plasma leptin level, Change Value (From Week 0 to Week 12), Average", "setting": "leptin; [8]", "value": "−3.42"},
      {"measurement": "plasma leptin level at week 12 compared to the reference value", "setting": "leptin; [8]", "value": "reduced to a statistically significant level"},
      {"measurement": "Plasma leptin level, Average", "setting": "leptin; [9]", "value": 19.85},
      {"measurement": "Plasma leptin level, Average", "setting": "leptin; [10]", "value": 9.90},
      {"measurement": "Plasma leptin level, Change Value (From Week 0 to Week 12), Average", "setting": "leptin; [11]", "value": "−3.39"},
      {"measurement": "plasma leptin level at week 12 compared to the reference value", "setting": "leptin; [11]", "value": "reduced to a statistically significant level"},
      {"measurement": "Plasma leptin level, Average", "setting": "leptin; [12]", "value": 12.93},
      {"measurement": "Plasma leptin level, Average", "setting": "leptin; [13]", "value": 10.59},
      {"measurement": "Body mass index (BMI), Change Value (From Week 0 to Week 12), Average", "setting": "[2]; [5]", "value": "−0.27", "unit": "kg/m^2"},
      {"measurement": "Body mass index (BMI), Average", "setting": "[2]; [6]", "value": 37.18, "unit": "kg/m^2"},
      {"measurement": "Body mass index (BMI), Average", "setting": "[2]; [7]", "value": 36.45, "unit": "kg/m^2"},
      {"measurement": "Body mass index (BMI), Change Value (From Week 0 to Week 12), Average", "setting": "[2]; [8]", "value": 0.16, "unit": "kg/m^2"},
      {"measurement": "Body mass index (BMI), Average", "setting": "[2]; [9]", "value": 36.29, "unit": "kg/m^2"},
      {"measurement": "Body mass index (BMI), Average", "setting": "[2]; [10]", "value": 36.59, "unit": "kg/m^2"},
      {"measurement": "Body mass index (BMI), Change Value (From Week 0 to Week 12), Average", "setting": "[2]; [11]", "value": "−0.28", "unit": "kg/m^2"},
      {"measurement": "Body mass index (BMI), Average", "setting": "[2]; [12]", "value": 37.23, "unit": "kg/m^2"},
      {"measurement": "Body mass index (BMI), Average", "setting": "[2]; [13]", "value": 37.48, "unit": "kg/m^2"},
      {"measurement": "Body weight, Change Value (From Week 0 to Week 12), Average", "setting": "[3]; [5]", "value": -0.73, "unit": "kg"},
      {"measurement": "Body weight, Average", "setting": "[3]; [6]", "value": 109.11, "unit": "kg"},
      {"measurement": "Body weight, Average", "setting": "[3]; [7]", "value": 108.28, "unit": "kg"},
      {"measurement": "Body weight, Average", "setting": "[3]; [9]", "value": 103.56, "unit": "kg"},
      {"measurement": "Body weight, Average", "setting": "[3]; [10]", "value": 105.19, "unit": "kg"},
      {"measurement": "Body weight, Change Value (From Week 0 to Week 12), Average", "setting": "[3]; [11]", "value": -0.92, "unit": "kg"},
      {"measurement": "body weight over time (FIG. 2)", "setting": "[3]; [11]", "value": "reduced consistently until week 12"},
      {"measurement": "Body weight, Average", "setting": "[3]; [12]", "value": 103.94, "unit": "kg"},
      {"measurement": "Body weight, Average", "setting": "[3]; [13]", "value": 104.12, "unit": "kg"},
      {"measurement": "weight gain / body weight compared to the control", "setting": "[3]; [14]", "value": "less than the control, or the body weight was reduced"},
      {"measurement": "HbA1c, Change Value (From Week 0 to Week 12), Average", "setting": "[4]; [5]", "value": "−0.21", "unit": "%"},
      {"measurement": "level of HbA1c at week 12 versus Administration Group D (control)", "setting": "[4]; [5]", "value": "lower than that of Administration Group D"},
      {"measurement": "HbA1c, Average", "setting": "[4]; Administration Group A: 3 mg of CHP+23 mg of zinc once a day, Baseline (Week 0), type 2 diabetes patients", "value": 8.25, "unit": "%"},
      {"measurement": "HbA1c, Average", "setting": "[4]; [7]", "value": 8.04, "unit": "%"},
      {"measurement": "HbA1c, Change Value (From Week 0 to Week 12), Average", "setting": "[4]; [8]", "value": "−0.17", "unit": "%"},
      {"measurement": "level of HbA1c at week 12 versus Administration Group D (control)", "setting": "[4]; [8]", "value": "lower than that of Administration Group D"},
      {"measurement": "HbA1c, Average", "setting": "[4]; [9]", "value": 8.06, "unit": "%"},
      {"measurement": "HbA1c, Average", "setting": "[4]; [10]", "value": 7.90, "unit": "%"},
      {"measurement": "HbA1c, Change Value (From Week 0 to Week 12), Average", "setting": "[4]; [11]", "value": "−0.43", "unit": "%"},
      {"measurement": "level of HbA1c over time (FIG. 1)", "setting": "[4]; [11]", "value": "reduced consistently until week 8"},
      {"measurement": "HbA1c, Average", "setting": "[4]; [12]", "value": 8.49, "unit": "%"},
      {"measurement": "HbA1c, Average", "setting": "[4]; [13]", "value": 8.08, "unit": "%"},
      {"measurement": "level of HbA1c compared to the control", "setting": "[4]; [14]", "value": "reduced compared to the control"}
    ]}
  ]
}
